Here are results for 5 molecules from patent US20100099725A1, “PEROXISOME PROLIFERATOR ACTIVATED RECEPTOR MODULATORS” (priority 2007, published 2010).

One data set addresses T1, PPARδ receptor (Homo sapiens, UniProt Q03181).
T1 sequence (Q03181 1-441): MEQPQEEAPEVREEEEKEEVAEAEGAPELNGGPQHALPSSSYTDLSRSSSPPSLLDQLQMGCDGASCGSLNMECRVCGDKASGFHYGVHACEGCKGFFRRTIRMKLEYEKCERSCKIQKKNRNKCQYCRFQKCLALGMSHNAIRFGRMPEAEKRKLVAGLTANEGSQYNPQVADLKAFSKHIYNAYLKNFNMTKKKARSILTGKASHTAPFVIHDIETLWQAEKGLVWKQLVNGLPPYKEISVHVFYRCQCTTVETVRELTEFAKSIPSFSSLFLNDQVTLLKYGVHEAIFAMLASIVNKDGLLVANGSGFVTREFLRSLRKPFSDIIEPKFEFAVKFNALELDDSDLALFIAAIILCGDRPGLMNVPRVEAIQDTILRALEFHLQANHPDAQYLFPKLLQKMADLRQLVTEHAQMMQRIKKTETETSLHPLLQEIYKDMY
Kind of data set: Binding and cotransfection studies, PPARδ ("binding assay"). As for the experimental part:
(§1) DNA-dependent binding (ABCD binding) is carried out using SPA technology with PPAR receptors. Tritium-labeled PPARCX agonists are used as radioligands for generating displacement curves and IC50 values with compounds of the invention. Cotransfection assays are carried out in CV-1 cells. The reporter plasmid contains an acylCoA oxidase (AOX) PPRE and TK promoter upstream of the luciferase reporter cDNA. Appropriate PPARs are constitutively expressed using plasmids containing the CMV promoter. For PPARα, interference by endogenous PPARγ in CV-1 cells is an issue. In order to eliminate such interference, a GAL4 chimeric system is used in which the DNA binding domain of the transfected PPAR is replaced by that of GAL4, and the GAL4 response element is utilized in place of the AOX PPRE. Cotransfection efficacy is determined relative to PPARα agonist reference molecules. Efficacies are determined by computer fit to a concentration-response curve, or in some cases at a single high concentration of agonist (10 μM).
(§2) These studies are carried out to evaluate the ability of compounds of the invention to bind to and/or activate various nuclear transcription factors, particularly huPPARα (“hu” indicates “human”). These studies provide in vitro data concerning efficacy and selectivity of compounds of the invention. Furthermore, binding and cotransfection data for compounds of the invention are compared with corresponding data for marketed compounds that act on huPPARα.

The target of a further data set is T2, PPARα receptor (Homo sapiens, UniProt Q07869).
T2 sequence (Q07869 174-468 limits assumed): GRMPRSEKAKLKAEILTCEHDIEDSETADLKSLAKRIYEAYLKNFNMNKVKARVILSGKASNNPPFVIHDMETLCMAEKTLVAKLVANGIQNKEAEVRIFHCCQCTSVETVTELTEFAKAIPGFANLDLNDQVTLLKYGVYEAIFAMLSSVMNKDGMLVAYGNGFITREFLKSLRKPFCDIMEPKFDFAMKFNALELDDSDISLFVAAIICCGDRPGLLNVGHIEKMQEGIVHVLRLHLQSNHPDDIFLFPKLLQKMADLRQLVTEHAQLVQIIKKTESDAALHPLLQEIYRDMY
As to the kind of experiment: Binding and cotransfection studies, PPARα ("binding assay"). As for the experimental part:
as §1, §2

In data set [1] the target is T3, PXR (human SXR ligand binding domain) (Homo sapiens, UniProt O75469).
T3 construct: expressed in transfected cells; host or cells: HuH7 (human liver) cells
T3 sequence (O75469 146-433 limits assumed): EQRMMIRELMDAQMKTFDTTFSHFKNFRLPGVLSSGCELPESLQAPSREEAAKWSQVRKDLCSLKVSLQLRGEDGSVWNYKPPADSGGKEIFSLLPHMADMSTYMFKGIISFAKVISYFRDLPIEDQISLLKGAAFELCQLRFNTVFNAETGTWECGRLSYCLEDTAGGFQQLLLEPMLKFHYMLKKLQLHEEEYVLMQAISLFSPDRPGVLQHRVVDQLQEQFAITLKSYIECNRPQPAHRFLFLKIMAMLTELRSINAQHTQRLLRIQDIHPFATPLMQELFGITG
As to the kind of experiment: PXR Assay: GAL4PXR/GAL4 response element reporter assay in HuH7 cells. Type of data set: cell-based. To be noted: 24 h, versus maximum stimulation with rifampicin. As to the method:
PXR Assay: GAL4PXR/GAL4 Response Element Reporter Assays in HuH7 Cells:
Human liver HuH7 cells are co-transfected using Fugene. The reporter plasmid, containing five Gal4 binding site and major late promoter of adenovirus upstream of the luciferase reporter cDNA, is transfected with a plasmid constitutively expressing a hybrid receptor consistent of GAL4 DNA binding domain and human SXR ligand binding domain using viral SV40 early promoter. Cells are transfected with 10 μg of total DNA/10^6 cells in T225 cm^2 flasks in DMEM:F12 (3:1) media with 10% charcoal-stripped Fetal Bovine Serum (FBS). After an overnight incubation, transfected cells are trypsinized, plated in 96 well dishes in DMEM:F12 (3:1) media with 10% charcoal-stripped FBS, incubated for 4 h and then exposed to 0.8 nM to 50 μM of test compounds in half log dilutions. After 24 h of incubations with compounds, cells are lysed and luciferase activity is determined Data is fit to a 4 parameter-fit logistics to determine EC50 values. The % efficacy is determined versus maximum stimulation obtained with rifampicin.
On the technique in general: A reporter such as luciferase makes a cellular process visible.

The target of data set [2] is T4, Pregnane X Receptor (PXR) (Homo sapiens, UniProt O75469).
T4 sequence (O75469 1-434): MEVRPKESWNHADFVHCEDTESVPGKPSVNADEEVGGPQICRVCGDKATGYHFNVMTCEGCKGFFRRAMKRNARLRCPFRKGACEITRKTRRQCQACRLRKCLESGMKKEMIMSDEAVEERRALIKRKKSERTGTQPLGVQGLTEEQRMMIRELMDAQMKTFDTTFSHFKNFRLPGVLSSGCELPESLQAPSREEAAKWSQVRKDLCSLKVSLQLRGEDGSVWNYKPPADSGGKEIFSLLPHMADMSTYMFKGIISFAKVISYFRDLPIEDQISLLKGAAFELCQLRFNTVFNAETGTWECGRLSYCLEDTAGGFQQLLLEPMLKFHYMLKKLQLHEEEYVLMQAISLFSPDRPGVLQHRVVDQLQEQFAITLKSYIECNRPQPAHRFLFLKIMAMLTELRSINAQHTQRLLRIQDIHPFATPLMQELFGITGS
As to conditions: reported in background section; cited from earlier work.

A word on the EC50: it is the concentration at which the effect is half-maximal. `Cc1cc(OCc2nn(-c3ccc(C(F)(F)F)cc3)c(=O)n2-c2ccccc2F)ccc1OC(C)(C)C(=O)O` [Example 13]: the figures for the EC50 on PPARδ receptor and on PPARα receptor were 14 nM and 19.5 nM, respectively. Besides, in data set [1], the “PXR (% efficacy versus max stimulation with Rifampicin)” value came out at 57.8%.
In the same order, the values of `CC(C)(Oc1ccc(OC(CCCC(F)(F)F)c2nn(-c3ccc(C(F)(F)F)cc3)c(=O)n2-c2c(F)cccc2F)cc1)C(=O)O` (racemic) [Example 57, 2-(4-{1-[4-(2,6-Difluoro-phenyl)-5-oxo-1-(4-trifluoromethyl-phenyl)-4,5-dihydro-1H-[1,2,4]triazol-3-yl]-5,5,5-trifluoro-pentyloxy}-phenoxy)-2-methyl-propionic acid] are 46.4 nM, 872 nM and 13.5%.
In the same order, the values of `COCCn1c(COc2ccc(OC(C)(C)C(=O)O)c(C)c2)nn(-c2ccc(C(F)(F)F)cc2)c1=O` [Example 2, 2-{4-[4-(2-Methoxy-ethyl)-5-oxo-1-(4-trifluoromethyl-phenyl)-4,5-dihydro-1H-[1,2,4]triazol-3-ylmethoxy]-2-methyl-phenoxy}-2-methyl-propionic acid] are 297 nM, 256 nM and 52.8%.
For the molecule `Cc1cc(OCc2nn(-c3ccc(C(F)(F)F)cc3)c(=O)n2C(C)C)ccc1OC(C)(C)C(=O)O` [Example 1, 2-{4-[4-Isopropyl-5-oxo-1-(4-trifluoromethyl-phenyl)-4,5-dihydro-1H-[1,2,4]triazol-3-ylmethoxy]-2-methyl-phenoxy}-2-methyl-propionic acid], the EC50 came out at 63.4 nM on PPARδ receptor and 309 nM on PPARα receptor. Further, the “PXR (% efficacy versus max stimulation with Rifampicin)” value in data set [1] was 32.4%.
As for `Cc1c(C)c2c(c(C)c1O)CCC(C)(COc1ccc(CC3SC(=O)NC3=O)cc1)O2` (stereo not shown) [troglitazone], in data set [2], the PXR activation entry is recorded as “activated the Pregnane X Receptor (PXR)”.
